“Also recorded” adds a separate entry of the source.
Columns and labels:
glioma cells = experiment: Glioma cell assays combined (scratch and sphere, several cell lines); assay type: cell-based, human; settings: 100 μM; for Effect on glioma cells, overall: multiple assays and cell lines
Procedure: FIG. 2 illustrates a schematic of a functional screening approach. Seventy-four PTPμ wedge-targeted compounds and 2 blinded DMSO samples were received from Atomwise and screened at 100 μM in scratch wound healing assays using two glioma cell lines (LN229 and U87). Selected active and control compounds were taken into secondary assays (Gli36 scratch and LN229 and Gli36 sphere formation and growth assays). Inhibitors selected as being active in primary and secondary screens were tested for effects on the survival of LN229 and Sf9 cells, and selected glioma-cell inhibitors and activators were screened for effects on Sf9-PTPμ aggregation, a highly specific test for PTPμ function.
(§1) Cells were seeded at a density of 2.7×10^4 cells per well into the internal wells of Incuyte1 Imagelock 96-well plates (Essen BioScience Inc., Ann Arbor, MI) and cultured overnight to form monolayers. Monolayers were wounded with an IncuCyte1 96-well Woundmaker Tool per the manufacturer's instructions. The outer wells were filled with PBS to buffer edge effects, and then the wounded monolayers were cultured in 100 μl of fresh media with compounds or DMSO (2×replicates at 100 μM or 1%, respectively) at 37 °C and 5% CO2. Images were captured every 4 hrs. using an Incucyte live cell imaging system equipped with the Scratch Wound Module. Scratch wound widths were calculated, per the manufacturer's instructions, at TO and at endpoint (typically T12 for LN229 and U87 cells and T8 for Gli36), which was taken as the last timepoint before wound closure. The cell migration distance was calculated from scratch widths [(T0Width−TendpointWidth)/2] and normalized to the average distance migrated by the DMSO controls. Values are presented as average percentages±standard errors of the means (s.e.m.). The majority of compounds were screened with an n of two, but the n for priority hits ranges from 2-6.
(§2) Cells were seeded at a density of 7500 cells per well into the internal wells of 96-well plates coated with 0.75% (wt/vol) PVA as previously described. Compounds were added (2×replicates per treatment) at the indicated final concentrations, and control wells were treated with matching concentrations of DMSO. The external wells of the plates were filled with PBS to buffer against edge effects, and the cells were incubated at 37 °C and 5% CO2 for 7 days. A Leica CTR6500 microscope fitted with an automated stage was used to capture brightfield images on day 1 and day 7, and sphere footprint areas were measured using Image J (v1.52a http://imagej.nih.gov/ij) as previously described. To quantify the effects of the compounds on day 1, the footprint areas of the treated wells were normalized to the average area of the matched DMSO control wells. To quantify the effects of the compounds on sphere growth, the change in the sphere footprint areas was calculated ([…]) and then normalized to the average size change of the matched DMSO samples. All values are presented as average percentages±s.e.m.

PTPμ = PTPμ (Homo sapiens, UniProt P28827); experiment: PTPμ-dependent Sf9 aggregation assay; assay type: cell-based; settings: 100 μM; 20 min pretreatment; in words
PTPμ, sequence (P28827 21-1452): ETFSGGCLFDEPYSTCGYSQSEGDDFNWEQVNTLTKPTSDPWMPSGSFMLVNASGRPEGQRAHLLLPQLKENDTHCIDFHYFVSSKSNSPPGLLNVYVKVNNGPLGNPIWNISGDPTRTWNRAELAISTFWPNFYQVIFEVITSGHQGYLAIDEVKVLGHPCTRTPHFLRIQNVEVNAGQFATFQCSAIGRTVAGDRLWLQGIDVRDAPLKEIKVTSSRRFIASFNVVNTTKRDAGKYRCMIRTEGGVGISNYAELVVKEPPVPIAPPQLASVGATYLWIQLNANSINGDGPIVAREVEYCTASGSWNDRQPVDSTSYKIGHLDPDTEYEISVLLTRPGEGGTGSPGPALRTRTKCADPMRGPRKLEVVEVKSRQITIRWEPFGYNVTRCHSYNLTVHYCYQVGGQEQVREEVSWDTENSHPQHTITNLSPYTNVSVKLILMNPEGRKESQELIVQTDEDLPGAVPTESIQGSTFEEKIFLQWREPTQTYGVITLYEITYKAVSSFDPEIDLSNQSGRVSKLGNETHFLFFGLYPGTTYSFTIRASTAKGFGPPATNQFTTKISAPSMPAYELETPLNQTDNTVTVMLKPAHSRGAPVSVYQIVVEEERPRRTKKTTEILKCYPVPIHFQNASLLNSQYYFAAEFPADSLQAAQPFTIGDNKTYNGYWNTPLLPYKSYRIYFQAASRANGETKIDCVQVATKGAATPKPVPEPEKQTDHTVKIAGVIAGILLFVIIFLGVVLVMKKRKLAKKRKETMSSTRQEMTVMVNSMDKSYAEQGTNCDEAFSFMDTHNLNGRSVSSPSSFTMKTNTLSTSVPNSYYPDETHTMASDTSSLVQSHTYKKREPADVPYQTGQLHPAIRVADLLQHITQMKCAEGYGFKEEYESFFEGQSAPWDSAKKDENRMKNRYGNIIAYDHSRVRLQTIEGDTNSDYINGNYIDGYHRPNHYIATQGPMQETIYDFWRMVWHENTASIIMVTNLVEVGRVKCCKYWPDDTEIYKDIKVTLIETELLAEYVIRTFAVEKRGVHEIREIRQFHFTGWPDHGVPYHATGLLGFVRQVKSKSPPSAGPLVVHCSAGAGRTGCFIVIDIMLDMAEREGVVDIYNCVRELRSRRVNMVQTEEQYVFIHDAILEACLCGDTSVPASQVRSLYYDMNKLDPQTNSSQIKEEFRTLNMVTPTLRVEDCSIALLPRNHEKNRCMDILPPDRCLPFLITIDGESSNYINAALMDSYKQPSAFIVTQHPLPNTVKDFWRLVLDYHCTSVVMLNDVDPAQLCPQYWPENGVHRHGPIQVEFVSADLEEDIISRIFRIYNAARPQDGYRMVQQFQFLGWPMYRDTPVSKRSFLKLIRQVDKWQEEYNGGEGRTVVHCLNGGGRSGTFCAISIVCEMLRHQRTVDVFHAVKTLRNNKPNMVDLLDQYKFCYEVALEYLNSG

LN229 cells [1] = experiment: LN229 glioma sphere formation and growth assay; assay type: cell-based, human; settings: 100 μM, in words; for Effect on LN229 sphere formation: day 1; for Effect on LN229 sphere growth: day 7
Procedure: FIGS. 5(A-E) illustrate a histogram and images showing the results of the LN229 sphere formation and growth assays. Selected inhibitors, activators, and control compounds identified in LN229 and/or U87 scratch wound closure assays were retested at 100 μM in a secondary assay for glioma cell (LN229) sphere formation and growth. A. Histogram showing the effects of the indicated compounds on sphere formation. On day 1, sphere footprint areas were determined and normalized to the average footprint area of the unblinded vehicle-treated controls. On day 1, a larger footprint area indicates inhibition of aggregation. B. Histogram showing the effects of the indicated compounds on sphere growth. On day 7, the changes in sphere footprint areas were calculated and normalized to the average size change of the unblinded vehicle-treated controls. On day 7, a smaller value indicates reduced growth. […] Data is presented as percentages±s.e.m. of 2-4 replicates. Representative images of samples treated with DMSO (C) and two priority inhibitors (D and E) are shown. Relative day 1 footprint areas and day 7 growth measurements are indicated for each example.
FIGS. 15(A-D) illustrate a histogram and images of titration of selected compounds on LN229 sphere formation and growth. LN229 cells were plated onto non-adherent surfaces and treated with the indicated compounds at 100, 50, and 25 μM. A. On day 1, sphere footprint areas were determined and normalized to the average footprint area of the unblinded vehicle-treated controls. On day 1, a larger foot-print area indicates inhibition of aggregation. B. On day 7, the changes in sphere footprint areas were calculated and normalized to the average size change of the unblinded vehicle-treated controls. On day 7, a smaller value indicates reduced growth. […] Data is presented as percentages±s.e.m. The initial test at 100 μM and the follow-up at that dose with titration is shown. Each bar is the average of 2 replicates. Representative day 1 (C) and day 7 (D) images of samples treated with two priority inhibitors are shown. Relative day 1 sphere footprint areas and day 7 growth for each example are indicated.
as §2
We tested the effects of twenty-four compounds (11 flagged as inhibitory, 4 as stimulatory, and nine as inert in the initial scratch-wound screen, FIG. 2) on the ability of LN229 cells to mediate cell-cell adhesion and grow in 3D culture on non-adherent surfaces. To quantify sphere formation (FIG. 5A), the footprint areas of aggregates were measured on day 1 and normalized to that of the DMSO control. At this time point, a larger footprint size (>120%) indicates inhibition, i.e., the failure of cells to form a compact aggregate. To quantify sphere growth (FIG. 5B), we calculated the percent changes in sphere footprint areas between day 1 and day 7 and normalized them to that of the DMSO controls.

U87 cells = experiment: U87 scratch wound healing assay; assay type: cell-based, human; settings: 100 μM
Source text: FIGS. 11(A-D) illustrate a histogram and images of the results of the U87 scratch wound assays. A. Histogram showing the effects of all soluble wedge pocket-targeting compounds on U87 scratch wound closure. Cell movement into the scratches was quantified from scratch wound widths at the start and end of the assay and normalized to the average movement of cells in the unblinded DMSO control samples. Data is presented as average percentages±s.e.m., and compound bar codes are shown on the x-axis. Most compounds were screened with an n of 2-4. Representative images of scratch wounds treated with DMSO (A) or two priority inhibitors (C and D) are shown.
as §1

LN229 cells [2] = experiment: LN229 scratch wound healing assay; assay type: cell-based, human; settings: for activity at 100 µM: Homo sapiens, LN-229, normalized to DMSO controls, read-out: LN229 scratch wound closure relative to DMSO controls
Source text: FIGS. 3(A-D) illustrate a histogram and images of the LN229 scratch wound assays. A. Histogram showing the effects of all soluble wedge-targeted compounds on LN229 scratch wound closure. Cell movement into the scratches was quantified from scratch wound widths at the start and end of the assay and normalized to the average movement of cells in the unblinded DMSO control samples. Data is presented as average percentages±standard error of the means (s.e.m.), and compound bar codes are shown on the x-axis. The majority of compounds were screened with an n=2. Some priority compounds were screened with 3-6 replicates. Representative endpoint images of samples treated with DMSO (B) and two priority inhibitors (C and D) are shown. The relative migration distances for each example are indicated.
as §1
Scratch assays measure the ability of cells to migrate into a wound and close it creating a monolayer.

LN229 cells [3] = experiment: Helix Blue staining of LN229 spheres (cell survival); assay type: cell-based, human; settings: 100 μM, 24 h, qualitative
Procedure: (§3) FIG. 17 illustrates images showing the effects of prioritized inhibitors on cell survival. LN229 cells were plated onto non-adherent surfaces and cultured in the presence of the indicated compounds (100 μM). On day 1, spheres were stained with Helix Blue to detect dying cells. Parental Sf9 cells (which lack PTPμ) plated onto tissue culture plastic were also grown in the presence of the indicated compounds and, on day 1, stained with Helix Blue. Three compounds appeared to cause a qualitative increase in staining in LN229 spheres. No compound was toxic to Sf9 cells.
(§4) LN229 cells, plated onto non-adherent surfaces as described above, and parental Sf9 cells (without PTPμ), seeded into 96-well flat bottom tissue culture plates, were treated for 24 h with the indicated compounds (100 μM). The cells and spheres were then treated with 5.5 μM Helix Blue (Biolegend, San Diego, CA) and imaged at 10× on a Leica CTR6500 fluorescence microscope.
(§5) The seven penetrant inhibitors were tested to see if they affected the survival of LN229 spheres and parental Sf9 cells (which lack PTPμ) (FIG. 17).

parental Sf9 cells = experiment: Helix Blue staining of parental Sf9 cells (cell survival); assay type: cell-based, insect; settings: 100 μM, 24 h, cells lack PTPμ
Procedure: as §3, §4, §5

| SMILES | Effect on glioma cells, overall (glioma cells) | Effect on PTPμ-dependent Sf9 aggregation / adhesion (PTPμ) | Effect on glioma cell migration (glioma cells; scratch assays) | Effect on LN229 sphere formation (LN229 cells [1]) | Effect on LN229 sphere growth (LN229 cells [1]) | Effect on U87 cell morphology in scratch assay (U87 cells) | activity at 100 µM (LN229 cells [2]) | Effect on LN229 cell morphology in scratch assay (LN229 cells [2]; 100 μM) | Effect on LN229 cell survival / cell death (LN229 cells [3]) | Effect on parental Sf9 cell survival (parental Sf9 cells) |
| --- | --- | --- | --- | --- | --- | --- | --- | --- | --- | --- |
| Cc1cccc(-c2ccc3c(c2)C(=O)N2CCC(NC(=O)COCC(=O)O)C2C(=O)N3)c1C (centres unmarked) [Compound 247685429] | did not affect glioma cells | able to inhibit PTPμ-dependent adhesion; also recorded: able to inhibit PTPμ-mediated aggregation | – | – | – | – | – | – | – | – |
| CCC1(CC)NC(=O)N(CC(=O)Nc2ccc(Oc3ccccc3)cc2)C1=O [Compound 247682206] | highly penetrant inhibitors; also recorded: able to inhibit glioma cells | PTPμ-dependent adhesion; also recorded: affect PTPμ-mediated aggregation | able to inhibit glioma cell migration | delayed sphere formation | inhibited growth | pile-up of U87 cells at the edge of the scratch wound | < 60% | – | – | – |
| O=C1NC2(CCCC2)C(=O)N1CC(=O)N(Cc1cccs1)c1ccc2c(c1)OCCO2 [Compound 247679515] | highly penetrant inhibitors in glioma cell assays | not shown to affect PTPμ-mediated aggregation; also recorded: did not affect PTPμ-dependent adhesion | – | completely blocked sphere formation | – | – | < 60% | rounding | – | – |
| COc1ccccc1CNC(=O)CC(NC(N)=O)c1cccc(Oc2ccccc2)c1 (centres unmarked) [Compound 247679045] | highly penetrant inhibitors in glioma cell assays | not shown to affect PTPμ-mediated aggregation; also recorded: did not affect PTPμ-dependent adhesion | – | completely blocked sphere formation | – | – | < 60% | – | caused a qualitative increase in LN229-cell death | did not affect parental Sf9 cells |
| CC(C)COc1ccc(C(=O)N2CCNC(=O)C2CC(=O)OC2CCCCC2)cc1 (centres unmarked) [Compound 247682240] | highly penetrant inhibitors | not shown to affect PTPμ-mediated aggregation | – | delayed sphere formation | inhibited growth | pile-up of U87 cells at the edge of the scratch wound | < 60% | – | – | – |

Reference: patent US20260355168A1, “COMPOSITIONS AND METHODS FOR TREATING AND DETECTING CANCER” (CASE WESTERN RESERVE UNIVERSITY, priority 2022, published 2026)
